Entries after “also recorded” stand apart in the source; their conditions may differ.
Columns and labels:
[1] = tested on: neonatal rat ventricular myocyte (NRVM) tissue-engineered ventricles; assay: β-adrenergic response of tissue-engineered NRVM ventricles by pressure-volume catheterization; assay type: cell-based
Experimental: (§1) Intra-ventricular pressure and volume were measured simultaneously using a Millar MPVS-Ultra single segment foundation system for rats with SPR-869NR rat pressure-volume (PV) catheters (ADInstruments, Colorado Springs, CO). Catheter calibration and PV experiments were performed in freshly prepared Tyrode's solution. First, tissue-engineered ventricles were transferred to a 3.5 cm petri dish mounted on a temperature-controlled stage (Warner Instruments, Hamden Conn.) to maintain 35° C. working temperature. Ventricles were sutured to silicone tubing through which catheters were inserted (FIG. 12A). Data acquired at a sampling rate of 2,000 samples per second using manufacturer-supplied acquisition systems (Millar MPVS ultra, ADInstruments LabChart) and was exported for post-processing with custom Matlab scripts (MathWorks, Natick MA).
(§2) Catheter calibration. Catheters were equilibrated at 35° C. prior to use and calibrated for pressure using a manometer (Meriam M2; Meriam Process Technologies, Cleveland, OH) and volume using manufacturer-supplied cuvettes (Millar P/N 910-1048). […] Separate scaffold-specific calibrations were performed, where cell-free scaffolds were inflated and deflated by manual application of pressure through a solution-filled syringe connected to the ventricle through a junction port. […] In some cases, pressure or volume signal noise and drift were reduced by post-processing using Matlab's smooth and polyfit functions (FIG. 12C). Pressure and volume signals were normalized by polynomial background subtraction to reduce unwanted signal drift from large data sets, clarifying frequency-domain analysis of ventricle beat rates over these time periods (FIGS. 13A-13D).
(§3) β-adrenergic response of tissue-engineered ventricles. The contractile response of tissue-engineered ventricles to increasing concentrations of the β-adrenergic agonist isoproterenol was measured as follows. A 100 mM stock solution of isoproterenol (Sigma-Aldrich) containing 110 μM ascorbic acid (Sigma-Aldrich) and 45 μM EDTA (Sigma-Aldrich) was prepared in Tyrode's solution and stored at −20° C. […]

[2] = tested on: human induced pluripotent stem cell-derived cardiomyocyte (hiPSC-CM) tissue-engineered ventricles; assay: β-adrenergic response of tissue-engineered hiPSC-CM ventricles by pressure-volume catheterization; assay type: cell-based
Experimental: as §1, §2, §3

CC(C)NCC(O)c1ccc(O)c(O)c1 (stereo not drawn) [isoproterenol]
chronotropic response of ventricle beat rate ([1]; NRVM ventricles, 1 e^−10 M to 1 e^−4 M, cumulative doses): positive chronotropic response
increase of ventricle beat rate ([1]; NRVM ventricles, 10^−4 M isoproterenol, compared to spontaneous baseline (no Iso)): ~ 40%
effect on stroke work (pressure/volume loops) ([1]; rat (NRVM) ventricles, before vs after isoproterenol exposure): reduction in stroke work; also recorded: reduced stroke work
chronotropic response of ventricle beat rate ([2]; hiPSC-CM ventricles, 1 e^−10 M to 1 e^−4 M, cumulative doses): positive chronotropic response
increase of ventricle beat rate ([2]; hiPSC-CM ventricles, 10^−4 M isoproterenol, compared to spontaneous baseline (no Iso)): ~ 40%
effect on stroke work (pressure/volume loops) ([2]; human (hiPSC-CM) ventricles, before vs after isoproterenol exposure): reduction in stroke work; also recorded: reduced stroke work

— US12698467B2, “Tissue engineered scaffolds, instrumented bioreactors and methods of use thereof” (President and Fellows of Harvard College, priority 2018, dated 2026)
